Measured values reported in BindingDB's records for doi:10.1021/bi501086s (The University of Texas, 2014).

target: T1, Acylase (Pseudomonas aeruginosa, UniProt A0A0G5TC92); assay: PVdQ Inhibition Assay; conditions: pH 8
T1 sequence (A0A0G5TC92 whole entry): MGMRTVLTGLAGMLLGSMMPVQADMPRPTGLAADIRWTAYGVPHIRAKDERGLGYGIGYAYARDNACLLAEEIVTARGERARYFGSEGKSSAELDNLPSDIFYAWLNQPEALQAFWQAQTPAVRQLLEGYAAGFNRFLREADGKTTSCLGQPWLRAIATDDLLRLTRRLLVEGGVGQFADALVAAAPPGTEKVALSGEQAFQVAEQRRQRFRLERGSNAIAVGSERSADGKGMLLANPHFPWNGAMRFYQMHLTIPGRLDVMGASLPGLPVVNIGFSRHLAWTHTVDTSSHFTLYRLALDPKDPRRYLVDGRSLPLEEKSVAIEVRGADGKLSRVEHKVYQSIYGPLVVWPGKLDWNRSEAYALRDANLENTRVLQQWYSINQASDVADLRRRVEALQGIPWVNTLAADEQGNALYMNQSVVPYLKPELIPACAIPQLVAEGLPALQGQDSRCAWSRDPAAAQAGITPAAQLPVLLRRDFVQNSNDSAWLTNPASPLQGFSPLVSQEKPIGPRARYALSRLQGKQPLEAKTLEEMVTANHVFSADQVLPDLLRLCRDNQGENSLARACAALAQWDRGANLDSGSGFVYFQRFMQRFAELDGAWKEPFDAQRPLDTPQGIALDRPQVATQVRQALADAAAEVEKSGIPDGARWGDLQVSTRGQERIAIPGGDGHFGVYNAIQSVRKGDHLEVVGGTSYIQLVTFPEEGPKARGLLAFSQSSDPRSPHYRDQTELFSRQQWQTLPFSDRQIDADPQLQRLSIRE
Procedure: Briefly, stock solutions of the colorimetric PvdQ substrate (4-nitrophenyl dodecanoate) were prepared in methanol and stock solutions of each n-alkylboronic acid inhibitor in DMSO. […] Each reaction was initiated by addition of purified PvdQ (10 nM) and product formation was monitored by measuring the increase in absorbance at 402 nm continuously.

Ki | SMILES
2000 µM | CCB(O)O [1-Ethylboronic acid (C2-B(OH)2)]
4700 µM | CCCB(O)O [1-Propylboronic acid (C3-B(OH)2)]
2.1 µM | CCCCCCB(O)O [1-Hexylboronic acid (C6-B(OH)2)]
550 µM | CCCCB(O)O [Borinic acid derivative]
